Experimental data taken from patent US12077503B2, “Substituted cyclic amides and their use as herbicides” (FMC CORPORATION, priority 2015, dated 2024).

How the values were obtained:
Format in all cases: in vivo
Kochia (Kochia scoparia) = assay: Test A preemergence; conditions: Bassia scoparia, pre-emergence, 240 h, preemergence, 0 to 100 scale where 0 is no effect and 100 is complete control, read-out: Kochia plant response rating
In short: (§1)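 Treatment is preemergence as a directed soil spray after planting, or postemergence at the one- to two-leaf stage, with test chemical in a non-phytotoxic solvent mixture plus surfactant. Plants stay in the greenhouse about 10 d before visual injury scoring on a 0 to 100 scale versus untreated controls.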

[1] = system: pigweed (Amaranthus retroflexus); assay: Test A preemergence; conditions: Amaranthus retroflexus, pre-emergence, 240 h, preemergence, 0 to 100 scale where 0 is no effect and 100 is complete control, read-out: Pigweed plant response rating
[2] = system: ragweed (common ragweed, Ambrosia elatior); assay: Test A preemergence; conditions: Ambrosia artemisiifolia, pre-emergence, 240 h, preemergence, 0 to 100 scale where 0 is no effect and 100 is complete control, read-out: Ragweed plant response rating
In short: as §1

[3] = system: barnyardgrass (Echinochloa crus-galli); assay: Test A preemergence; conditions: Echinochloa crus-galli, pre-emergence, 240 h, preemergence, 0 to 100 scale where 0 is no effect and 100 is complete control, read-out: Barnyardgrass plant response rating
In short: as §1

[4] = system: ryegrass, Italian (Italian ryegrass, Lolium multiflorum); assay: Test A preemergence; conditions: Lolium multiflorum, pre-emergence, 240 h, preemergence, 0 to 100 scale where 0 is no effect and 100 is complete control, read-out: Ryegrass, Italian plant response rating
In short: as §1

[5] = system: giant foxtail (Setaria faberii); assay: Test A preemergence; conditions: Setaria faberi, pre-emergence, 240 h, preemergence, 0 to 100 scale where 0 is no effect and 100 is complete control, read-out: Foxtail, Giant plant response rating
In short: as §1

[6] = system: wheat (Triticum aestivum); assay: Test A postemergence; conditions: Triticum aestivum, post-emergence, 240 h, postemergence, read-out: Wheat plant response rating
In short: as §1

[7] = system: blackgrass (Alopecurus myosuroides); assay: Test A postemergence; conditions: Alopecurus myosuroides, post-emergence, 240 h, postemergence, read-out: Blackgrass plant response rating
In short: as §1

corn (Zea mays) = assay: Test A postemergence; conditions: Zea mays, post-emergence, 240 h, postemergence, read-out: Corn plant response rating
In short: as §1

[8] = system: pigweed (Amaranthus retroflexus); assay: Test A postemergence; conditions: Amaranthus retroflexus, post-emergence, 240 h, postemergence, read-out: Pigweed plant response rating
In short: as §1

[9] = system: ragweed (common ragweed, Ambrosia elatior); assay: Test A postemergence; conditions: Ambrosia artemisiifolia, post-emergence, 240 h, postemergence, read-out: Ragweed plant response rating
In short: as §1

[10] = system: barnyardgrass (Echinochloa crus-galli); assay: Test A postemergence; conditions: Echinochloa crus-galli, post-emergence, 240 h, postemergence, read-out: Barnyardgrass plant response rating
In short: as §1

[11] = system: ryegrass, Italian (Italian ryegrass, Lolium multiflorum); assay: Test A postemergence; conditions: Lolium multiflorum, post-emergence, 240 h, postemergence, read-out: Ryegrass, Italian plant response rating
In short: as §1

[12] = system: Galium (catchweed bedstraw, Galium aparine); assay: Test A postemergence; conditions: Galium, post-emergence, 240 h, postemergence, read-out: Galium plant response rating
In short: as §1

[13] = system: giant foxtail (Setaria faberii); assay: Test A postemergence; conditions: Setaria faberi, post-emergence, 240 h, postemergence, read-out: Foxtail, Giant plant response rating
In short: as §1

[14] = 125 g ai/ha, visual injury on 0 to 100 scale (0 no effect, 100 complete control), approx. 10 d
[15] = 500 g ai/ha, 0 to 100 scale, 0 is no effect, 100 is complete control

CCc1cc(CC)cc([C@H]2CNC(=O)[C@@H]2C(=O)Nc2ccccc2F)c1 [Compound 1138]
50%: pest or weed control at 500 g/ha ([4]; 500 g ai/ha) | plant injury at 125 g/ha (corn (Zea mays); [14]) | pest or weed control at 500 g/ha [11, 15] | pest or weed control at 500 g/ha [12, 15] | pest or weed control at 125 g/ha [13, 14]
30%: pest or weed control at 125 g/ha ([4]; 125 g ai/ha, approx. 10 d) | plant injury at 125 g/ha [6, 14] | pest or weed control at 125 g/ha [7, 14]
0%: pest or weed control at 125 g/ha (Kochia (Kochia scoparia); 125 g ai/ha, approx. 10 d) | pest or weed control at 125 g/ha ([1]; 125 g ai/ha, approx. 10 d) | pest or weed control at 500 g/ha ([1]; 500 g ai/ha) | pest or weed control at 125 g/ha ([2]; 125 g ai/ha, approx. 10 d) | pest or weed control at 500 g/ha ([2]; 500 g ai/ha) | pest or weed control at 125 g/ha [8, 14] | pest or weed control at 500 g/ha [8, 15] | pest or weed control at 125 g/ha [9, 14] | pest or weed control at 500 g/ha [9, 15] | pest or weed control at 125 g/ha [11, 14]
70%: plant injury at 500 g/ha [6, 15]
80%: pest or weed control at 500 g/ha (Kochia (Kochia scoparia); 500 g ai/ha) | plant injury at 500 g/ha (corn (Zea mays); [15])
20%: pest or weed control at 125 g/ha [12, 14]
90%: pest or weed control at 125 g/ha ([3]; 125 g ai/ha, approx. 10 d) | pest or weed control at 500 g/ha ([3]; 500 g ai/ha) | pest or weed control at 125 g/ha ([5]; 125 g ai/ha, approx. 10 d) | pest or weed control at 500 g/ha ([5]; 500 g ai/ha) | pest or weed control at 125 g/ha [10, 14] | pest or weed control at 500 g/ha [10, 15] | pest or weed control at 500 g/ha [13, 15]
60%: pest or weed control at 500 g/ha [7, 15]
